Reference: the supplement of paper PMC10627819

How the values were obtained:
S. aureus Newman [1] = test: fitness (endpoint OD595 vs no drug) (fraction); higher = more growth
How it was run: (§1)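 Fitness expresses the optical density reached at the stationary-phase transition as a fraction of the robust mean of no-drug control wells. It is capped at 1. Measurements were OD595 every 30 min for 14 h at 37 °C after inoculation of 384-well plates at OD595 0.01 (30 µl, or 55 µl for S. pneumoniae), minus the first reading.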

S. pneumoniae D39V [2] = test: as above
How it was run: as §1

B. subtilis 168 [3] = test: as above
How it was run: as §1

S. aureus DSM 20231 [4] = test: as above
How it was run: as §1

S. aureus Newman [5] = test: Bliss interaction score (quartile over a dose matrix) (fitness difference); higher = more antagonism (negative = synergy)
How it was run: (§2)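 Each plate was normalised to the robust mean of its own no-drug wells, using OD595 at entry into stationary phase, with values capped at 1. This normalised growth is the fitness value. The Bliss score is the difference between observed and product-expected fitness, with single-drug fitness inferred from the combination data and quartiles taken over technical, biological and donor/recipient replicates.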

S. pneumoniae D39V [6] = test: as above
How it was run: as §2

B. subtilis 168 [7] = test: as above
How it was run: as §2

S. aureus DSM 20231 [8] = test: as above
How it was run: as §2
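Throughout, for Bliss interaction score (quartile over a dose matrix): first quartile when negative (synergy) and third quartile when positive (antagonism).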

COc1c(N2C[C@@H]3CCCN[C@@H]3C2)c(F)cc2c(=O)c(C(=O)O)cn(C3CC3)c12 [Moxifloxacin] + COc1ccc(C[C@H](N)C(=O)N[C@H]2[C@@H](O)[C@H](n3cnc4c(N(C)C)ncnc43)O[C@@H]2CO)cc1 [Puromycin]
fitness
Conditions | partner 0.39 µg/mL | partner 0.78 µg/mL | partner 1 µg/mL | partner 1.56 µg/mL | partner 2 µg/mL | partner 4 µg/mL
B. subtilis 168 [3], first compound 0.0312 µg/mL | 0.0423 | 0.0567 | – | 0.053 | – | –
B. subtilis 168 [3], first compound 0.0625 µg/mL | 0.0666 | 0.0602 | – | 0.0585 | – | –
B. subtilis 168 [3], first compound 0.125 µg/mL | 0.0451 | 0.045 | – | 0.0653 | – | –
B. subtilis 168 [3], first compound 2 µg/mL | 0.0227 | 0.028 | – | 0.0306 | – | –
B. subtilis 168 [3], first compound 4 µg/mL | 0.021 | 0.0248 | – | 0.0303 | – | –
B. subtilis 168 [3], first compound 8 µg/mL | 0.009 | 0.0168 | – | 0.0189 | – | –
S. aureus DSM 20231 [4], first compound 0.0075 µg/mL | 0.885 | 0.928 | – | 0.861 | – | –
S. aureus DSM 20231 [4], first compound 0.015 µg/mL | 0.789 | 0.846 | – | 0.802 | – | –
S. aureus DSM 20231 [4], first compound 0.03 µg/mL | 0.681 | 0.695 | – | 0.668 | – | –
S. aureus Newman [1], first compound 0.0075 µg/mL | 0.797 | 0.757 | – | 0.817 | – | –
S. aureus Newman [1], first compound 0.015 µg/mL | 0.673 | 0.657 | – | 0.658 | – | –
S. aureus Newman [1], first compound 0.03 µg/mL | 0.119 | 0.161 | – | 0.282 | – | –
S. pneumoniae D39V [2], first compound 0.005 µg/mL | – | – | ≥ 1 | – | ≥ 1 | 0.885
S. pneumoniae D39V [2], first compound 0.01 µg/mL | – | – | ≥ 1 | – | 0.982 | 0.88
S. pneumoniae D39V [2], first compound 0.02 µg/mL | – | – | 1 | – | 0.985 | 0.88

one replicate
Conditions | fitness
S. aureus DSM 20231 [4], first compound 0.0075 µg/mL, partner 3.12 µg/mL | 0.779
S. aureus DSM 20231 [4], first compound 0.0075 µg/mL, partner 6.24 µg/mL | 0.642
S. aureus DSM 20231 [4], first compound 0.015 µg/mL, partner 3.12 µg/mL | 0.787
S. aureus DSM 20231 [4], first compound 0.015 µg/mL, partner 6.24 µg/mL | 0.509
S. aureus DSM 20231 [4], first compound 0.03 µg/mL, partner 3.12 µg/mL | 0.754
S. aureus DSM 20231 [4], first compound 0.03 µg/mL, partner 6.24 µg/mL | 0.547
S. aureus DSM 20231 [4], first compound 0.06 µg/mL, partner 0.39 µg/mL | 0.676
S. aureus DSM 20231 [4], first compound 0.06 µg/mL, partner 0.78 µg/mL | 0.7
S. aureus DSM 20231 [4], first compound 0.06 µg/mL, partner 1.56 µg/mL | 0.687
S. aureus DSM 20231 [4], first compound 0.12 µg/mL, partner 0.39 µg/mL | 0.48
S. aureus DSM 20231 [4], first compound 0.12 µg/mL, partner 0.78 µg/mL | 0.482
S. aureus DSM 20231 [4], first compound 0.12 µg/mL, partner 1.56 µg/mL | 0.558
S. pneumoniae D39V [2], first compound 0.0037 µg/mL, partner 1 µg/mL | 0.502
S. pneumoniae D39V [2], first compound 0.0037 µg/mL, partner 2 µg/mL | 0.431
S. pneumoniae D39V [2], first compound 0.0037 µg/mL, partner 4 µg/mL | 0.342
S. pneumoniae D39V [2], first compound 0.0075 µg/mL, partner 1 µg/mL | 0.846
S. pneumoniae D39V [2], first compound 0.0075 µg/mL, partner 2 µg/mL | 0.82
S. pneumoniae D39V [2], first compound 0.0075 µg/mL, partner 4 µg/mL | 0.77
S. pneumoniae D39V [2], first compound 0.015 µg/mL, partner 1 µg/mL | 0.935
S. pneumoniae D39V [2], first compound 0.015 µg/mL, partner 2 µg/mL | 0.798
S. pneumoniae D39V [2], first compound 0.015 µg/mL, partner 4 µg/mL | 0.763

Conditions | Bliss interaction score
B. subtilis 168 [7] | -0.0157
S. aureus DSM 20231 [8] | -0.0292
S. aureus Newman [5] | 0.0443
S. pneumoniae D39V [6] | 0.101

COc1c(N2C[C@@H]3CCCN[C@@H]3C2)c(F)cc2c(=O)c(C(=O)O)cn(C3CC3)c12 [Moxifloxacin] + C[n+]1ccc(-c2cc[n+](C)cc2)cc1 [Paraquat]
fitness
Conditions | partner 1.25 µg/mL | partner 1.5 µg/mL | partner 2.5 µg/mL | partner 3 µg/mL | partner 5 µg/mL | partner 6 µg/mL
B. subtilis 168 [3], first compound 0.0312 µg/mL | 0.0599 | – | 0.0539 | – | 0.0449 | –
B. subtilis 168 [3], first compound 0.0625 µg/mL | 0.044 | – | 0.0467 | – | 0.0504 | –
B. subtilis 168 [3], first compound 0.125 µg/mL | 0.0395 | – | 0.0537 | – | 0.0512 | –
B. subtilis 168 [3], first compound 2 µg/mL | 0.0316 | – | 0.0333 | – | 0.0436 | –
B. subtilis 168 [3], first compound 4 µg/mL | 0.0442 | – | 0.039 | – | 0.0413 | –
B. subtilis 168 [3], first compound 8 µg/mL | 0.0139 | – | 0.0174 | – | 0.0265 | –
S. aureus DSM 20231 [4], first compound 0.0075 µg/mL | 0.818 | – | 0.831 | – | 0.824 | –
S. aureus DSM 20231 [4], first compound 0.015 µg/mL | 0.748 | – | 0.712 | – | 0.774 | –
S. aureus DSM 20231 [4], first compound 0.03 µg/mL | 0.647 | – | 0.632 | – | 0.634 | –
S. aureus Newman [1], first compound 0.0075 µg/mL | 0.706 | – | 0.73 | – | 0.727 | –
S. aureus Newman [1], first compound 0.015 µg/mL | 0.583 | – | 0.565 | – | 0.554 | –
S. aureus Newman [1], first compound 0.03 µg/mL | 0.0423 | – | 0.0559 | – | 0.0929 | –
S. pneumoniae D39V [2], first compound 0.005 µg/mL | – | 0.979 | – | 0.994 | – | 0.969
S. pneumoniae D39V [2], first compound 0.01 µg/mL | – | 0.966 | – | 0.957 | – | 0.939
S. pneumoniae D39V [2], first compound 0.02 µg/mL | – | 0.947 | – | 0.927 | – | 0.893

fitness, one replicate
Conditions | partner 1.25 µg/mL | partner 1.5 µg/mL | partner 2.5 µg/mL | partner 3 µg/mL | partner 5 µg/mL | partner 6 µg/mL
S. aureus DSM 20231 [4], first compound 0.06 µg/mL | 0.684 | – | 0.7 | – | 0.699 | –
S. aureus DSM 20231 [4], first compound 0.12 µg/mL | 0.456 | – | 0.456 | – | 0.451 | –
S. pneumoniae D39V [2], first compound 0.0037 µg/mL | – | 0.906 | – | 0.857 | – | 0.896
S. pneumoniae D39V [2], first compound 0.0075 µg/mL | – | 0.878 | – | 0.852 | – | 0.868
S. pneumoniae D39V [2], first compound 0.015 µg/mL | – | 0.886 | – | 0.866 | – | 0.868

Conditions | Bliss interaction score
B. subtilis 168 [7] | 0.0133
S. aureus DSM 20231 [8] | -0.0639
S. aureus Newman [5] | -0.0625
S. pneumoniae D39V [6] | -0.0615
